# Reference: PubChem BioAssay AID1645848
# Settings: buffer; pH 7.4; 6.0 h; 150.0 µM
row,SMILES,solubility kinetic [µg/mL]
1,Cc1ccc(/C=C/c2nc3ccccc3n2S(=O)(=O)c2cccc(Cl)c2)cc1,< 1
2,CC(C)c1ccccc1-c1ncc(F)c(NCc2ccc(-c3ccn[nH]3)cc2)n1,< 1
3,Fc1ccc(-c2ccc(Nc3nc(-c4ccncc4)nc4ccccc34)cc2F)cc1,< 1
4,O=C(Nc1ncc(-c2ccccc2)s1)c1ccc(-c2cccc([N+](=O)[O-])c2)o1,< 1
5,CCOC(=O)c1ccc(N2C(=O)c3[nH]nc(-c4ccc(OC)cc4)c3C2c2ccc(C)cc2)cc1 (stereo unspecified),< 1
6,Cc1cccc(S(=O)(=O)c2cn(Cc3ccccc3)c3cc(N4CCCCC4C)c(F)cc3c2=O)c1 (stereo unspecified),< 1
7,CN(C)c1ccc(-c2csc(N3CCC(C(N)=O)CC3)n2)cc1,3.78
8,COc1ccc2c(c1)N(C[C@H](C)CN(C)C)c1ccccc1S2,> 48
9,Cc1cccc(C)c1NC(=O)c1nc(SC(C)C)ncc1Cl,1.22
10,Cc1ccc(C(=O)Nc2ccc(CN3CCN(C)CC3)c(C(F)(F)F)c2)cc1C#Cc1cnc2cccnn12,< 1
11,COc1cc2c3cc1Oc1c(O)c(OC)cc4c1[C@@H](Cc1ccc(cc1)Oc1cc(ccc1O)C[C@H]3N(C)CC2)N(C)CC4,> 88
12,O=C(O)CCNc1cc(N2CCc3ccccc3CC2)nc(-c2ccccn2)n1,> 58
13,Cc1ccnc(NC(=S)N2CCC(Nc3cccc(C(F)(F)F)c3)CC2)c1,6.4
14,O=C(Nc1ccc(C(=O)Nc2nccs2)cc1)c1ccc2ccccc2c1,< 1
15,CN(C)c1cc(-c2nc(Nc3ccc(F)c(F)c3)c3ccccc3n2)ccn1,< 1
16,C[C@H]1[C@@H](CCC(=O)Nc2ccc(F)cc2)O[C@@H]2O[C@]3(C)CC[C@@H]4[C@H](C)CC[C@@H]1[C@@]24OO3,24
17,Cc1noc(C)c1C(=O)N1CCC2(CCCN(Cc3ccccc3)C2)CC1,< 1
18,Fc1ccc(Cl)cc1-c1nc(Nc2ccncc2)c2nccnc2n1,1.6
19,CSc1nnc2c3ccccc3n(CCc3ccccc3)c2n1,< 1
20,O=C1Nc2ccc(-c3cccc(C(F)(F)F)c3)cc2C(=O)N2CCN(C(=O)COc3ccccc3)C[C@H]12,< 1
21,Cn1cc(S(=O)(=O)N2CCCCCC2)cc1C(=O)Nc1ccc(Cl)c(C(F)(F)F)c1,< 1
22,Cc1onc(-c2ccccc2)c1C(=O)Nc1nnc(COc2ccc(Cl)cc2)s1,< 1

row,SMILES,solubility kinetic [µg/mL]
1,Cc1ccc(-n2nc(C)c3c(-c4ccc(O)c(O)c4)c(C#N)c(N)nc32)cc1C,1.81
2,O=C1CCCC2=C1C(c1[nH]ncc1Cl)N=C(Nc1nc3ccccc3o1)N2 (stereo unspecified),< 1
3,O=C(CSc1ccccc1)Nc1nnc(COc2ccc(Cl)cc2)s1,< 1
4,COc1ccccc1NS(=O)(=O)c1cccc(NC(=O)c2[nH]c(C)c(C(C)=O)c2C)c1,15.2
5,COc1ccc(NC(=O)c2c(C)cccc2C)cc1[S+](=O)([O-])N1CCCCC1,38.8
6,CCCNC(=O)c1ccc2c(c1)N=C(C)c1c(C)ccc(C)c1S2,2.73
7,CCOc1ccc(CCNC(=O)c2cc3sccc3n2CCN(C)C)cc1OCC,> 63
8,CC(C)c1nc2oc3c(NCCN(C)C)ncnc3c2c2c1COC(C)(C)C2,> 57
9,Cc1ccc(C)c(S(=O)(=O)NCC2CN(Cc3ccccc3)CCO2)c1 (stereo unspecified),> 55
10,O=C1Nc2ccccc2/C1=C/c1ccnc2ccccc12,3.07
11,Cc1ccc(OCCn2c(CCNC(=O)C3CCCCC3)nc3ccccc32)cc1,< 1
12,CNc1sc(-c2cccc3ccccc23)nc1C#N,< 1
13,Nc1c(-c2ccccc2)cc[nH]c1=O,12.9
14,Oc1ccc(Nc2nc(-c3ccncc3)nc3ccccc23)cc1F,< 1
15,CCCCCCOc1ccc(OC(=O)c2ccncc2)cc1,< 1
16,OCCNc1ncnc2c1ncn2[C@@H]1O[C@@H](CO)[C@H](O)[C@@H]1O,> 46
17,CCN(CC)C(=O)c1ccc2c(c1)ncn2-c1cccc(C)c1,> 45
18,Cc1cccc(S(=O)(=O)Nc2cnccc2C(=O)Nc2nc(-c3ccccc3)cs2)c1,21.8
19,CC/C=C\C/C=C\C/C=C\C/C=C\C/C=C\C/C=C\CCC(=O)NCCO,> 55
20,Cc1cc(-c2nnc3n2CCCCC3)c(C)n1-c1ccc(Cl)c(Cl)c1,31.6
21,N#CC1CCN(c2nc(-c3ccc(Br)cc3)cs2)CC1,1.46
22,CN1CCC(N(Cc2cccs2)c2ccccc2)CC1,> 42

row,SMILES,solubility kinetic [µg/mL]
1,COc1ccc(CN2CCNc3cc(Nc4ccccc4)ncc3C2)cc1O,> 83
2,COc1ccc(-c2ccc3nc(-c4cc(F)ccc4F)oc3c2)c(OC)c1OC,< 1
3,Cc1ccc(-c2nnc(N3CCC(C(N)=O)CC3)s2)cc1,14.6
4,Cc1cccc(-n2cnc3cc(C(=O)N4CCCCC4)ccc32)c1,> 47
5,COc1ccc(CCN2CCC(Nc3nc4ccccc4n3Cc3ccc(F)cc3)CC2)cc1,54.6
6,Cc1c(-c2nsc(NC(=O)c3cccc(Cl)c3)n2)nnn1-c1ccccc1C(F)(F)F,< 1
7,Clc1ccccc1-c1nnc2sc(-c3ccc4c(c3)OCO4)nn12,< 1
8,COC(=O)c1ccc2c(c1)nc1n2[C@@H](CNC(C)=O)COC1,> 30
9,O=S(=O)(Nc1ccc2ccccc2c1)c1ccc(NCc2ccc(Br)cc2O)cc1,< 1
10,O=[S+]([O-])(Nc1ccccc1)c1ccc(NCc2ccc(Cl)cc2O)cc1,2.64
11,Cc1cc(C)c(CNC(=O)c2nc(-c3cccc(CO)c3)cc3c2ccn3C)c(=O)[nH]1,24.7
12,NCC(=O)Nc1ccc(Cl)cc1C(=O)c1ccc[nH]1,> 41
13,COc1cccc2nc(-c3cccs3)nc(NN3C(=O)C=C(C)C3=O)c12,> 54
14,CN(C)c1cccc(-c2cnc(N3CCC(C(N)=O)CC3)nc2)c1,34.9
15,COc1cc(/C=C(\C#N)C(=O)c2ccc(O)c(O)c2)cc(I)c1O,50.3
16,Cc1cc(C)nc(NC(=S)N2CCN(c3ccc(C(F)(F)F)cc3Cl)CC2)c1,3.08
17,Cc1nc(NC(=O)C2CC(=O)N(c3n[nH]c4cc(Br)ccc34)C2)sc1C (stereo unspecified),< 1
18,Fc1ccc(CNc2cc3c(cn2)CN(Cc2ccncc2)CCN3)cc1,36.6
19,COc1ccccc1N1CCN(C2CCCCC2NS(=O)(=O)c2ccccc2)CC1 (stereo unspecified),2.68
20,CC[C@@]1(O)C(=O)OCc2c1cc1n(c2=O)Cc2c-1nc1ccccc1c2CCNC(C)C,> 6

# Second part, the molecule after the results:
row,solubility kinetic [µg/mL],SMILES
1,13.4,FC(F)(F)c1cccc(N2CCN(C(=S)Nc3ccccn3)CC2)c1
2,> 51,CCCOC(c1cc2nccc(C(=O)O)c2[nH]1)c1ccccc1Cl (stereo unspecified)
3,< 1,c1ccc2c(Nc3ccon3)nc(-c3ccncc3)nc2c1
4,> 44,Clc1ccc2ncc(-c3cccc(NC4CNC4)n3)n2c1
5,> 49,Cc1cc(NS(=O)(=O)c2ccc3c(c2)CCC(=O)N3)ccc1F
6,< 1,O=c1cc(-c2ccccc2)oc2cc(O)cc(O)c12
7,2.28,COc1ccc(NC(=O)c2[nH]c(C)c(C(C)=O)c2C)cc1S(=O)(=O)Nc1cccc(C#N)c1
8,> 53,O=C(NCC1Cn2cccc2CN1Cc1cccnc1)Nc1ccccc1 (stereo unspecified)
9,> 45,Cc1cccc(N(C)c2nc3ccccc3c3nnc(C)n23)c1
10,1.13,Nc1ncc(S(=O)(=O)N2CCN(c3ccccc3)CC2)cn1
11,10,CC(=O)N1CCc2c(sc3c2c(=O)n(-c2ccccc2)c(=O)n3Cc2cccc(C(F)(F)F)c2)C1
12,19.7,Cc1cc(C)nc(NC(=S)N2CCN(c3cc(C(F)(F)F)nc4ccccc34)CC2)c1
13,< 1,Oc1ccc(C(=S)N2CCN(c3cccc(Cl)c3)CC2)cc1
14,18.5,C[C@]1(CO)CN(c2cc(C(=O)Nc3ccc4c(c3)-c3c(c(C(N)=O)nn3-c3ccc(F)cc3)CC4)c(Cl)cn2)C[C@@]1(C)CO
15,< 1,CCOc1ccc(NC(=O)c2nc(S(=O)(=O)Cc3ccccc3F)ncc2Cl)cc1
16,< 1,CCOC(=O)c1[nH]c(C)c(CCC(=O)N2CCN(c3cccc(C)c3C)CC2)c1C
17,< 1,O=C(Nc1ccc(S(=O)(=O)Nc2nc(-c3ccccc3)cs2)cc1)c1ccc2ccccc2c1
18,36.2,O=C1CCCC2=C1C(c1[nH]ncc1Cl)N=C(Nc1nc3cc([S+](=O)([O-])N4CCCC4)ccc3o1)N2 (stereo unspecified)
19,12.1,CN1Cc2c(cc(N3CCOCC3)nc2-c2ccccc2OC(F)(F)F)C1=O

row,solubility kinetic [µg/mL],SMILES
1,29,COCCNS(=O)(=O)c1cc(-c2nn3c(C)nnc3c3ccccc23)ccc1C
2,< 1,Cc1ccc(S(=O)(=O)Nc2ccc(Cl)c(C(=O)Nc3nc(-c4ccccc4)cs3)c2)cc1
3,> 60,COc1ccccc1OCCNCC(O)COc1cccc2[nH]c3ccccc3c12 (stereo unspecified)
4,31.9,CC[C@@]1(O)C(=O)OCc2c1cc1n(c2=O)Cc2c-1nc1cc(F)c(C)c3c1c2[C@@H](N)CC3
5,< 1,COc1cccc(CNc2ccc(S(=O)(=O)Nc3cccc4ccccc34)cc2)c1O
6,2.59,Fc1cc(F)cc(Nc2nc(-c3ccncc3)nc3ccccc23)c1
7,< 1,Fc1ccc(CNc2nc(-c3ccncc3)nc3ccccc23)cc1F
8,< 1,CCC1=Nc2cc(C(=O)NC3CCCC3)ccc2Sc2ccc(Cl)cc21
9,2.6,CC(=O)c1ccc(N2CCN(S(=O)(=O)c3ccc4c(c3)n(C)c(=O)n4C)CC2)cc1
10,< 1,Fc1ccc(Nc2nc(-c3ccncc3F)nc3ccccc23)cc1F
11,> 30,O=C(Nc1cccnc1)c1cccs1
12,> 73,CN[C@@H](C)C(=O)N[C@@H]1C(=O)N(Cc2c(C)ccc3ccccc23)c2ccc(C#N)cc2N(C(C)=O)[C@H]1C
13,18.3,Cc1cccc(-c2noc([C@@H]3Cc4nc[nH]c4CN3)n2)c1
14,7.06,O=C(NCCCCc1ccccc1)C1CCN(c2nc(-c3ccc(Br)cc3)cs2)CC1
15,> 58,Brc1ccc(-c2csc(N3CCC(c4nn[nH]n4)CC3)n2)cc1
16,< 1,CCOC(=O)c1cc(C)sc1NC(=O)c1ccc(Cl)s1
17,1.11,O=C(c1cnn(-c2cccc(F)c2)c1-n1cccc1)N1CCN(c2ccccc2F)CC1
18,> 49,Cc1ccnc(C)c1C(=O)Nc1cccc([S+](=O)([O-])N(C)C)c1
